According to ChEMBL document CHEMBL3351248, “The discovery of potent, selective, and reversible inhibitors of the house dust mite peptidase allergen Der p 1: an innovative approach to the treatment of allergic asthma” (J Med Chem, 2014):
Activity calls are given as the source filed them. The rule behind the calls is not given here.

Experiments:
[1] = Metabolic stability in rat NR8383 cells after 2 hrs by LC-MS-MS analysis; assay type: ADME, cell-based; settings: nr8383, 2 h
[2] = Metabolic stability in rat L2 cells after 2 hrs by LC-MS-MS analysis; assay type: ADME, cell-based; settings: l2, 2 h
Rattus norvegicus = experiment: Inhibition of house dust mites allergan-induced eosinophil recruitment in Brown Norway rat model at 25 to 35 ug/kg administered via intratracheal aerosolization 2 hrs prior to allergan challenge measured after 48 hrs by bronchoalveolar lavage method; assay type: functional, organism-based; settings: Lung

Row | SMILES | Stability [1] | Stability [2] | inhibition (Rattus norvegicus)
1 | CC(C)[C@H](NC(=O)[C@H](C)NC(=O)[C@H](Cc1ccccc1)NC(=O)c1ccccc1)C(=O)C(=O)NCC(=O)N1CCOCC1 | Stable | Stable | Active
2 | CC(C)[C@H](NC(=O)[C@H](C)NC(=O)[C@@H](NC(=O)c1ccncc1)C(C)(C)C)C(=O)C(=O)NC1CCCCC1 | Stable | Stable | Active
3 | CC(C)[C@H](NC(=O)[C@H](C)NC(=O)[C@H](Cc1ccccc1)NC(=O)c1ccccc1)C(=O)C(=O)NCC(=O)N1CCN(C)CC1 | Stable | Stable | Active
4 | CC(C)[C@H](NC(=O)[C@H](C)NC(=O)[C@@H](NC(=O)c1ccccc1)C(C)(C)C)C(=O)C(=O)NCc1ccccc1 | Stable | Stable | 
5 | CC(C)[C@H](NC(=O)[C@H](C)NC(=O)[C@H](Cc1ccccc1)NC(=O)c1cccc2ccccc12)C(=O)C(=O)NCC(=O)N1CCN(C)CC1 | Stable | Stable | Active
6 | CC(C)[C@H](NC(=O)[C@H](C)NC(=O)[C@H](Cc1ccccc1)NC(=O)c1ccccc1)C(=O)C(=O)NCC(=O)N1CC[N+](C)(C)CC1.O=C[O-] | Stable | Stable | 
7 | CC(C)[C@H](NC(=O)[C@H](C)NC(=O)[C@@H](NC(=O)c1ccnc2ccccc12)C(C)(C)C)C(=O)C(=O)NCc1ccccc1 | Stable | Stable | Active
8 | CC(C)[C@H](NC(=O)[C@H](C)NC(=O)[C@@H](NC(=O)C1CC[N+](C)(C)CC1)C(C)(C)C)C(=O)C(=O)NCc1ccccc1.O=C[O-] | Stable | Stable | 
